In patent publication US20180228711A1, “3-(4-HYDROXYPHENYL) PROPANOIC ACID AMIDE FOR USE IN TISSUE REPAIR AND/OR SKIN BRIGHTENING” (NMETICS IVS, priority 2015, published 2018):

Key:
Type in all cases: cell-based
B10F16 mouse melanocytes = experiment: skin de-pigmentation assay (cell pellet colour intensity)
Description: The assay was standardized using B10F16 mouse melanocytes with cell numbers at a density ranging from 5×10^4 to 1×10^5 cells per ml. […] The following day the cells were pre-treated with 80 μM of PA and 10 μM+control for 2 h, 24 h, 72 h and 96 h.
Cells were then collected, counted for cell number and equal numbers were pelleted. The cell pellet was visually observed for colour intensity and quantified. The same cell pellet was then used for protein extraction and immunoblot analysis.
Test solution preparation: Stock solutions of the test compound are prepared by dissolving in DMSO. The stock solutions were filter sterilized, stored in fridge at 4° C., and were used for experiments by dilution it in the cell culture medium as required.
Mouse melanocytes (B10F16 cell line) were maintained in Dulbecco's modified Eagle's medium (DMEM; Invitrogen) supplemented with 10% foetal bovine serum (v/v; Invitrogen), 2 mM glutamine, and 1% non-essential amino-acids.
Cells were sub-cultured at 37° C., 5% CO2 and 95% humidity, were fed approximately 16 h prior to each assay and cell number was determined in duplicates using a Coulter Z2 counter (Beckman Coulter). Mouse melanocytes were sub-cultured when they reached confluence at a split ratio 1:4.

human fibroblast cells [1] = experiment: uni-directional scratch assay (cell migration); conditions: fibroblasts pre-treated with PA 80 μM for three days; after 24 hrs
Description: Fibroblasts were pre-treated with PA (80 μM) for three days before performing the scratch assay.
(§1) Delicate cell monolayers at confluency are mechanically disrupted leaving an area devoid of cells. This procedure is accomplished by a “scrape” made on the cells and later advancement of the adjacent cells into the open area by cell mechanical migration, which is monitored by microscopy. Depending on the cell type, the covering process can take from many hours to less than a day, which is entirely dependent on the type of cells and extent of the scrape. The rate or the extent of migration of the cells (often termed as repopulation rate) can be calculated by a series of photomicrographs.
• Plate fibroblasts at a density 1×10^4 in 35 mm tissue culture plates and incubate for three days using novel test compounds with a control at 37° C., 5% CO2. • At confluency, displace a group of cells within the […] measure the scrape size at each time point. • Evaluate statistical significance by Student's t test. • Observe significant differences in scrape repairin PA pre-treatment on fibroblasts.

fibroblast cells = experiment: Boyden chamber chemotactic migration assay; conditions: PA treated vs controls; three independent assays
Description: 48-well Microchemotaxis Chamber Protocol
NOTE: The following directions assume that you are working with polycarbonate filters.
• 1. Adjust a variable-volume micropipette with a 1 mm tip so that the ejected liquid fills a bottom well. The well will hold 25 to 26 μL. A slight positive meniscus should form when the well is filled; this prevents air bubbles from being trapped when the filter is applied. • 2. Orient the bottom plate on a flat surface so that the NP trademark is at the upper left. Warm chemo-attractants or control reagents to about 37° C. and de-gas them by vortex or vacuum. Fill the bottom wells, completing the 48 wells in no more than 5 minutes, to prevent excessive evaporation. • 3. Cut 1 mm off the corner of a filter membrane and orient it with the cut corner at the upper left. Lift the filter by the ends with two forceps, hold it evenly over the filled wells, and lower it onto them, allowing the middle portion of the filter to make contact first. The filter position can be adjusted at this point if necessary, but note that too much movement will cause contamination between wells. • 4. Apply the silicone gasket with its cut corner at the upper left, then the top plate, aligning its NP trademark with the trademark on the bottom plate. […] With your free hand, apply and tighten the thumb nuts until finger tight.
• 1. […]

[2] = test system: fibroblasts embedded in collagen lattice; experiment: free floating collagen lattice contraction assay; conditions: PA pre-treated embedded fibroblasts; two independent experiments
Description: Collagen type I from bovine skin can be purchased from IBFB Pharma GmbH, Leipzig, Germany and is prepared according to the distributed protocols.
Cells are trypsinized, suspended in complete growth medium and carefully mixed in the collagen solution (collagen in 0.9×DMEM, 10% FCS, 0.2 mM NaOH, prepared at room temperature). Final cell concentrations might range from 0.8×10^4 to 3×10^5 cells/ml lattice. Final concentration of collagen might range from 0.3-0.6 mg/ml lattice.
After mixing, the solution is placed onto bacteriological Petri dishes and immediately put back into the incubator.
Half an hour after polymerization in the incubator, the lattices are carefully detached from the borders of the dishes using a pipette tip. It is important that the Free Floating Collagen Lattices “swim” freely in the medium.
Measurement of the diameter is performed at different time points depending on cell type and seeded cell number. Measurement can be done using a scale paper. From the diameter the area of the collagen lattice can be calculated and their size can be compared at different time points.
Production of collagen lattices: • Estimated time for 20 lattices=1 h conduction plus 1 h until medium addition. • Per assay, 20 empty 35 mm cell culture dishes were pre-warmed to 37° C. […]

human fibroblast cells [3] = experiment: bi-directional scratch assay (cell migration); conditions: fibroblasts pre-treated with PA 80 μM for three days; bidirectional scratch
Description: Fibroblasts were pre-treated with PA (80 μM) for three days before performing the scratch assay. Migration was quantified by a micrometer scale (see FIG. 3).
as §1
• Plate fibroblasts at a density 1×10^4 in 35 mm tissue culture plates and incubate for three days using novel test compounds with a control at 37° C., 5% CO2. • At confluency, displace a group of cells within the monolayer by making one streak using a sterile pipette tip. • Photograph under phase contrast microscopy sequentially at an interval of 19 hrs post scraping. • Using an ocular micrometer measure the scrape size at each time point. • Evaluate statistical significance by Student's t test. • Observe significant differences in scrape repairin PA pre-treatment on fibroblasts.

Oc1ccc(O)cc1 [+C, Hydroquinone, reference compound]
cell pellet colour, % lighter relative to −control (B10F16 mouse melanocytes; Hydroquinone at 10 μM, after 96 hrs): 78% lighter (78% relative to −control)

NC(=O)CCc1ccc(O)cc1 [PA, 3-(4-hydroxyphenyl)propanoic acid amide]
enhancement of migration (tissue repair) in vitro, uni-directional cell migration (human fibroblast cells [1]): more than 60%
enhancement of chemotactic migration towards chemo-attractants (factor) (fibroblast cells): 2.7
improvement of collagen contraction [2]: 85%
colour change of cell pellet (inhibition of melanin production) (B10F16 mouse melanocytes; PA 80 μM, visual observation): distinct color change from dark to pale
cell pellet colour, % lighter relative to −control (B10F16 mouse melanocytes; compound at 80 μM, after 96 hrs): 50% lighter (relative to − control)
cell pellet colour, % lighter relative to +control (B10F16 mouse melanocytes; compound at 80 μM, after 96 hrs, relative to hydroquinone 10 μM): 39% lighter (relative to +control)
improvement of tissue migration over the untreated (human fibroblast cells [3]): about 37%
